{"source": "patent US6468983B2", "about": "“RNase L activators and antisense oligonucleotides effective to treat telomerase-expressing malignancies” (The Cleveland Clinic Foundation, priority 1997, dated 2002)", "key": {"U251-MG cells": {"test_system": "U251-MG cells", "assay": "Cell viability assay, trypan blue dye exclusion, oligonucleotide in water every 12 hr", "format": "cell-based, human", "settings": "5 micromolar every 12 hr", "method": "The cytotoxic effect of 2-5A activator antisense complexes on tumor cells was determined using the trypan blue dye exclusion assay. Tumor cells were seeded at 10^4 cells/well (0.1 ml) in 96-well flat-bottomed plates and incubated overnight at 37° C. Then, oligonucleotides (5 micromolar) in water were added into cells every 12 hr. On successive days the cells were harvested and 25% of the total was examined microscopically to determine the percentage of viable cells, another 25% was replated to continue treatment and the remaining 50% were used for the TRAP assay.\nKnowing that hTR could be inactivated by the 2-5A antisense treatment, U251-MG cells were treated every 12 hours over a 14 day period with the same three oligonucleotides. 79% of the cells treated with spA4-anti-hTR were killed over the 14 day period with a significant (50%) reduction in cell viability after only 5 days. […] These experiments have since been repeated on a number of occasions with U251-MG cells to test new batches of oligonucleotides, always with the same results. […] Thus, after 14 days from the initial treatment with spA4-anti-hTR, the viability of U251-MG cells, as shown by Trypan-blue exclusion assays, was suppressed in all cases."}, "U373 cells": {"test_system": "U373 cells", "assay": "Viable cell count (trypan blue), daily oligonucleotide plus lipofectamine", "format": "cell-based, human", "method": "(§1) Cells (10,000/well) were seeded on 96 well tissue culture dishes, and treated every 24 hours. A 10× concentrated mixture of oligonucleotides plus lipofectamine in water was prepared containing 5 micromolar oligonucleotide and 80 microgram per ml lipofectamine™ (Gibco/BRL) and incubated for 10 min at room temperature. Media was removed from the cells, 10 microliters of the oligonucleotide/lipofectamine mixture was added directly to the cultured cells followed by 90 microliters of media plus serum. The media was changed with oligonucleotide/lipofectamine treatments every 24 h. Cells were passaged when the control cells reached confluency, and viable cells were counted after staining with Trypan Blue (GibcoBRL). The numbers of cells treated only with lipofectamine were used as the control to calculate percentages of cell survival or viability."}, "[1]": {"test_system": "normal diploid human fibroblasts (MRC5)", "assay": "Viable cell count, daily oligonucleotide plus lipofectamine", "format": "cell-based", "settings": "MRC5, 0.5 micromolar daily plus lipofectamine, 8 days", "method": "as §1\n(§2) For the experiments described below, lipofectamine was used to enhance the uptake of the oligonucleotides into cells (Williams et al., 1996, Leukemia 10:[…]). […] Using this protocol for 8 days, SpA4-anti-hTR reduced cell viability by 9% and 35% in the normal human lung cell line, WI 38, and in normal diploid human fibroblasts (MRC5), respectively, while causing a 90% reduction in the viability of U373 cells."}, "[2]": {"test_system": "normal human lung cell line, WI 38", "assay": "Viable cell count, daily oligonucleotide plus lipofectamine", "format": "cell-based", "settings": "WI 38, 0.5 micromolar daily plus lipofectamine, 8 days", "method": "as §1, §2"}, "[3]": {"test_system": "intracranial U373-MG tumors", "assay": "Survival of mice with intracranial malignant glioma, intracranial injection", "format": "in vivo, Balb/c nude mice", "method": "To establish murine models with intracranial tumors of U373-MG human malignant glioma cells, Balb/c nude mice were used. Mice (8-12 week-old male) were anesthetized using ketamine (90 mg/kg) and xylazine (10 mg/kg) and placed in a stereotaxic frame (Lab Standard w/18 Degree Earbars, Stoelting, Wood Dale, Ill.). Inoculation of 5×10^5 tumor cells (10 microliter of a tumor cell suspension of 5×10^7/ml in serum free DMEM [0.5 ml] and matrigel [0.5 ml]) was performed transcranially using a 27-gauge stainless-steel needle and microliter syringe (Perfectum, Popper & Sons, Inc., New Hyde Park, N.Y.). The needle insertion was in the skull 1 mm anterior and.2 mm lateral to the bregma and the depth of insertion was 4 mm from the skull (the caudate nucleus). The needle was left in place for 3 min and then withdrawn slowly over another minute. Two weeks after inoculation of tumor cells, mice were deeply anesthetized with ketamine/xylazine, and sacrificed by transcardiac perfusion with 4% formaldehyde. The brains were then sliced to include the injection site, and 12 μm sections were made for histological analysis. To determine the effect of 2-5A-anti-hTR on intracranial tumors, spA4-anti-hTR (3 nmol/10 microliter distilled water/3 microliter Lipofectamine, three times) was injected intracranially into the tumors via the same coordinates three weeks after inoculation of tumor cells (on Days 21, 23, and 25)."}, "U373-MG cells": {"test_system": "U373-MG cells", "assay": "Combination with cisplatin in vitro, MTT assay", "format": "cell-based, human", "settings": "treatment with spA4-anti-hTR", "method": "FIG. 17. Effect of combining 2-5A-anti-hTR with cisplatin on malignant glioma U373-MG cells in vitro and in vivo. FIG. 17A Tumor cells were treated with 2-5A-anti-hTR (0.5 μM, every 24 hr) mixed with Lipofectamine (1.0 μl/25 μl DMEM) or cisplatin for three days, and their viability was determined by MTT assay. Values represent the means±S.D. FIG. 17B Tumors from U373-MG cells (1.0×10^6 cells in 0.05 ml serum free DMEM and 0.05 ml matrigel) were established subcutaneously in nude mice. After four or five weeks when the tumors were approximately 60-100 mm^3, spA4-anti-hTR (5 nmol/20 μl sterile distilled water) were administrated directly into the tumors daily for 7 days. Cisplatin (1.0 or 5.0 mg/kg/mice) was administered intraperitoneally on Days 1, 3 and 5. Five Mice were used in each treatment group. Tumor volume was then determined using calipers, and the mean sizes ±S.D. were calculated.\nTo determine if the anti-malignant glioma cell activity of chemotherapeutic agent, cisplatin, could be enhance with SpA4-anti-hTR, a combination therapy protocol was devised (FIG. 17). The point at which 50% cell death was achieved was using 1 microgram per ml of cisplatin plus 0.5 micromolar of SpA4-anti-hTR; whereas in the absence of SpA4-anti-hTR, >10 micrograms per ml of cisplatin were required to achieve 50% cell death (FIG. 17). […] Furthermore, we determined the effect of combining 2-5A-anti-hTR with cisplatin on U373-MG cells in vitro and in vivo. […] The IC50 of cisplatin was reduced from 10.0 to 1.0 μg/ml by combination of spA4-anti-hTR."}, "[4]": {"settings": "U373, 0.5 micromolar daily plus lipofectamine, 3 days"}}, "data": [{"substance": "Sp5′A2′p(5′A2p)3-[(Bu)p]2-5′GCG CGG GGA GCA AAA GCA C3′-3′T5′ (antisense GCGCGGGGAGCAAAAGCAC; 5'-thiophosphate 2-5A tetramer, butanediol linkers, 3'-3'T cap, chemistry not fully specified) [spA4-anti-hTR, 2-5A tetramer linked by butanediol linkers to 19-mer antisense against human telomerase RNA nucleotides 76 to 94]", "values": [{"measurement": "cell death / effect on viability (in words)", "setting": "U251-MG cells; 14 days", "result": "vast majority of cells can be killed"}, {"measurement": "reduction in cell viability", "setting": "U251-MG cells; after 5 days", "result": 50, "unit": "%"}, {"measurement": "cells killed", "setting": "U251-MG cells; over the 14 day period", "result": 79, "unit": "%"}, {"measurement": "increase in the anti-tumor cell effect by use of lipofectamine", "setting": "U373 cells; 0.5 micromolar once a day with lipofectamine versus without", "result": "about 10 fold"}, {"measurement": "effect on growth/viability (in words)", "setting": "U373 cells; [4]", "result": "specifically suppressed growth"}, {"measurement": "reduction in viability", "setting": "U373 cells; [4]", "result": "about 60%"}, {"measurement": "cell viability reduced to", "setting": "U373 cells; U373, 0.5 micromolar daily plus lipofectamine, 7 days, two separate cultures", "result": "< 2", "unit": "%"}, {"measurement": "reduction in viability", "setting": "U373 cells; U373, 0.5 micromolar daily plus lipofectamine, 8 days", "result": 90, "unit": "%"}, {"measurement": "reduction of the dose required to block proliferation and survival of tumor cells using lipofectamine", "setting": "U373 cells; with lipofectamine versus without", "result": 10, "unit": "fold"}, {"measurement": "reduction in cell viability", "setting": "[1]", "result": 35, "unit": "%"}, {"measurement": "reduction in cell viability", "setting": "[2]", "result": 9, "unit": "%"}, {"measurement": "survival of mice", "setting": "[3]; 9 weeks after inoculation of tumor cells, 3 nmol plus Lipofectamine intracranially on Days 21, 23, 25", "result": 50, "unit": "%"}, {"measurement": "mice survived", "setting": "[3]; at 62 days post-tumor implantation", "result": 50, "unit": "%"}, {"measurement": "survival of mice (in words)", "setting": "[3]; intracranial injection", "result": "Enhanced survival"}, {"measurement": "susceptibility of U373-MG cells to cisplatin (in words)", "setting": "U373-MG cells", "result": "increased the susceptibility"}]}]}
